The target in experiment [1] is T1, PPARγ (peroxisome-proliferator-activated receptor γ) (Homo sapiens, UniProt P37231).
T1 construct: gene PPARG
T1 sequence (P37231 231-505 limits assumed): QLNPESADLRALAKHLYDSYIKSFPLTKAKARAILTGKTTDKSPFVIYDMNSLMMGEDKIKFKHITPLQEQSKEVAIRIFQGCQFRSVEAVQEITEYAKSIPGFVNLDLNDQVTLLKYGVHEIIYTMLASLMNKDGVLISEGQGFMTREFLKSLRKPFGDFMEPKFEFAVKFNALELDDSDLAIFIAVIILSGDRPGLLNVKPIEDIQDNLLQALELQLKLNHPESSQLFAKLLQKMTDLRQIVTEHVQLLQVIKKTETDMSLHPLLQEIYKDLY

The target of experiment [2] is T1, PPARγ (peroxisome-proliferator-activated receptor γ). Description: competitive fluorescence polarization of HPLC fraction […], dilution series and time course. The experiment is classed as binding. (Polarisation of emitted light reports the rotation of a fluorescent probe.)
Experiment [3] has the same target. Nature of the experiment: competitive fluorescence polarization (PolarScreen PPARγ green), time course; intact protein ESI-MS shows no covalent adduct. The experiment is classed as binding.

For the compound `CC/C=C\C/C=C\C/C=C\CCCCCCCC(=O)O` [compound 5, α-linolenic acid], the “competitive fluorescence polarization of HPLC fraction 5, dilution series” value in experiment [1] is “α-linolenic acid and linoleic acid bind to PPARγ immediately under the assay conditions used”.
On to `CCCCC/C=C\C/C=C\CCCCCCCC(=O)O` [compound 6, linoleic acid], for which the “competitive fluorescence polarization of HPLC fraction 6, dilution series and ti” value in experiment [2] is “α-linolenic acid and linoleic acid bind to PPARγ immediately under the assay conditions used”.
The IC50 is the midpoint of a concentration-inhibition curve. The low end stands for higher potency, the high end for lower potency. In experiment [3], `CC/C=C\C/C=C\C/C=C\CCCCCCCC(=O)OC[C@H](CO[C@@H]1O[C@H](CO)[C@H](O)[C@H](O)[C@H]1O)OC(=O)CCCCCCC/C=C\C/C=C\C/C=C\CC` [compound 11, DLGG] gave an IC50 of 1.64 µM.

The values are drawn from article PMC3654553, “A PPARγ ligand present in Actinidia fruit (Actinidia chrysantha) is identified as dilinolenoyl galactosyl glycerol” (Bioscience Reports, 2013).
